Reference: patent US10849904B2, “Methods for treatment of retinal disease by photoreceptor gene expression modulation” (University of Washington, priority 2015, dated 2020)

How the values were obtained:
retinas of adult mice = test: Intravitreal injection in adult mice, qPCR and Western blot; format: in vivo, mouse
Description: Conditional deletion of Nr2e3 in mature photoreceptors has not been reported; however, deletion of Nrl in mature photoreceptors leads to a partial “reprogramming” of the rods: the cells have reduced rod gene expression and an increase in the expression of some cone genes. Because PR1 reduces rod gene expression, including Nrl, in rods even at late stages in their development (P12), it was postulated that PR1 might have similar effects in the retinas of adult mice. To determine if PR1 affects adult photoreceptor gene expression in vivo, intravitreal injections in one eye of an adult mouse (>P21) were made and compared expression to the other eye.
RNA was isolated using TRIzol (Invitrogen) and cDNA was synthesized using the iScript cDNA synthesis kit (Bio-Rad) following an intervening DNase treatment with RQ1 RNase-free DNase (Promega). SSO Fast (Bio-Rad) was used for quantitative real-time PCR. For analysis, values were normalized to Gapdh and ΔΔCt between DMSO and compound-treated samples was expressed as percent of DMSO treated controls (100*2^ΔΔCt). Two-way Student's t-tests were performed on ΔCt values.
Retinal explants or retinas were homogenized in lysis buffer (50 mM Tris, 100 mM NaCl, 5 mM EDTA, 0.1% SDS, 1% Triton X-100, 2.5% glycerol, and 1× protease inhibitor cocktail) and equal amounts of protein samples were loaded and run in a 4-20% SDS gel (Bio-Rad). Protein was transferred to a PVDF membrane (Thermo Fisher Scientific), blocked (5% BSA and 0.1% Tween 20 in 1×PBS) and stained with primary antibodies (Supplemental Table S2) and then HRP-conjugated secondaries (Bio-Rad) diluted in blocking solution. Signals were visualized on X-ray film with SuperSignal West Dura Extended Duration Substrate (Thermo Fisher Scientific) and quantified using ImageJ software (NIH).
For intravitreal injections, adult mice (>P21) were anesthetized with isoflurane and injected with 1.5 μl of 10 mM PR1 using a 32-gauge Hamilton needle. Postnatal pups were injected intraperitoneally (IP) with 20 μl of 50 mM PR1 or 20 μl of DMSO at P2 or P3 with a 32-gauge Hamilton needle. Timed-pregnant dams were injected IP with 100 μl of 50 mM PR1 at E14 and E17 with a BD insulin syringe.

[1] = system: retina from Rho^P23H transgenic mice at P8; test: P8 Rho^P23H retinal explants, rhodopsin Western blot; format: cell-based, mouse; conditions: 2 μM, three days
Description: The effect of PR1 on Rho expression in adult rods might have potential as a way to slow the degeneration of these cells in dominant forms of retinitis pigmentosa, like Rho^P23H. In this disease, the affected individuals express a mutant form of rhodopsin that is likely inappropriately processed and ultimately leads to the death of the rods. […] The majority of rod cell death in the Rho^P23H transgenic line occurs between P14 and P21. […] […] The number of nuclei were counted in the ONL of each retina in the central region 100 μm from the optic nerve head. […] Gnb1 expression was also monitored as another measure of rod photoreceptor preservation because this is not directly affected by PR1 and thus serves as a surrogate for rod number. […]
Retinal explants or retinas were homogenized in lysis buffer (50 mM Tris, 100 mM NaCl, 5 mM EDTA, 0.1% SDS, 1% Triton X-100, 2.5% glycerol, and 1× protease inhibitor cocktail) and equal amounts of protein samples were loaded and run in a 4-20% SDS gel (Bio-Rad). […] Signals were visualized on X-ray film with SuperSignal West Dura Extended Duration Substrate (Thermo Fisher Scientific) and quantified using ImageJ software (NIH).

[2] = adult mice (>P21), two intravitreal injections over four days, vs other eye
[3] = adult retinas, intravitreal injection

Cc1cc(C)cc(NC(=O)CCc2nc3sc4c(c3c(=O)[nH]2)CCCC4)c1 [PR1, N-(3,5-dimethylphenyl)-3-(4-oxo-5,6,7,8-tetrahydro-3H-[1]benzothiolo[2,3-d]pyrimidin-2-yl)propanamide]
Rho mRNA expression by qPCR (retinas of adult mice; [2]): decreased
rhodopsin protein by Western blot (retinas of adult mice; [2]): decreased
S opsin (retinas of adult mice; [3]): not observed
expression of the cone photoreceptor marker TRβ2 (retinas of adult mice; [3]): increased
rhodopsin expression in the mutant rods [1]: effectively reduced rhodopsin expression
